Ends that are not written are not given here.
Key:
[1] = tested on: platelet aggregation in platelet-rich plasma; assay: Platelet aggregometry assay (PAP-4) in platelet-rich plasma; format: cell-based; details: for Platelet aggregation Slope, ADP / Platelet aggregation Extent, ADP: 2 μM ADP; for Platelet aggregation Slope, ADP: 0 mM: 47; for Platelet aggregation Extent, ADP / Platelet aggregation Extent, Epinephrine: 0 mM: 83%; for Platelet aggregation Slope, Epinephrine / Platelet aggregation Extent, Epinephrine: 10 μg/ml epinephrine; for Platelet aggregation Slope, Epinephrine: 0 mM: 24; for Platelet aggregation Slope, Arachidonic Acid / Platelet aggregation Extent, Arachidonic Acid: 0.5 mg/ml arachidonic acid; for Platelet aggregation Slope, Arachidonic Acid: 0 mM: 32; for Platelet aggregation Extent, Arachidonic Acid: 0 mM: 82%; for Platelet aggregation Extent, Thrombin / Platelet aggregation Slope, Thrombin: 0.2 units/ml thrombin; for Platelet aggregation Extent, Thrombin: 0 mM: 97%; for Platelet aggregation Slope, Thrombin: 0 mM: 113
Procedure: Reptilase Time Assays. The reptilase time may be used as a control assay to examine the effects of a γ′ peptide. This assay is insensitive to thrombin inhibitors, since reptilase is used to clot fibrinogen rather than thrombin. An LA STA instrument (Diagnostica Stago) may be used to quantitate the effect of the γ′ peptide on the RVV, using the manufacturer's protocol. Briefly, 0-1 mM γ′ peptide or scrambled peptide or 0-10 units/ml unfractionated heparin may be added to 1 ml of normal reference plasma (DVVtroll) and loaded into the LA STA. The LA STA may be used to add Reptilase ST reagent (American Diagnostica) to initiate clotting, and clot formation monitored spectrophotometrically for 65 seconds. […] Platelet Aggregometzy Assays. This assay may be used to test the effects of a γ′ peptide on platelet aggregation in platelet-rich plasma. The activity of a γ′ peptide may be assayed in the presence or absence of epinephrine, ADP, collagen, ristocetin, arachidonic acid, and thrombin. A PAP-4 platelet aggregometer (Bio/Data) was used to quantitate the effect of the γ′ peptide on platelet aggregation, using the manufacturer's protocol. […] Blood was centrifuged for 10 minutes at 1,000×g, to isolate the supernatant of platelet-rich plasma. All experiments were performed within 2 hours of the blood draw. 0-1 mM γ′ peptide or scrambled peptide or 0-10 units/ml unfractionated heparin was added to 450 μl of platelet-rich plasma and loaded into siliconized cuvettes. 50 μl of agonist was added and the absorbance monitored for 6 minutes. The agonists used were 10 μg/ml epinephrine (American Reagent Laboratories), 2 μM ADP (Sigma), 0.5 mg/ml arachidonic acid (Bio/Data), or 0.2 units/ml thrombin. The presence or absence of a bi-phasic response may be determined, which is of particular significance in the presence of epinephrine, ADP, and ristocetin. The length of the lag phase may be determined, which is especially relevant in the presence of collagen. PFA-100 Assays. The effect of the γ′ peptide on platelet function may also be assessed using a Platelet Function Analyzer (PFA-100™, Dade Behring). The PFA-100 instrument measures the closure time of a capillary tube containing whole blood. This assay may be used to advantage to examine the effect of γ′ peptide on platelet function in whole blood in the presence of either of the platelet agonists epinephrine or ADP. Briefly, 0-1 mM γ′ peptide or scrambled peptide or 0-10 units/ml unfractionated heparin may be added to 800 μl of normal reference whole blood from an established control group and loaded into the PFA-100 to measure the closure time. Platelet function may be tested using both a collagen/epinephrine cartridge and a collagen/ADP cartridge
Platelet aggregation assays were performed as described hereinabove. A PAP-4 platelet aggregometer (Bio/Data) was used to quantitate the effect of the γ′ peptide on platelet aggregation, using the manufacturer's protocol.
Blood was centrifuged for 10 minutes at 1,000×g, and the supernatant of platelet-rich plasma was separated. 0-1 mM γ′ peptide was added to 450 μl of platelet-rich plasma and loaded into siliconized cuvettes. 50 μl of agonist was added, and the absorbance was monitored for 6 minutes. The agonists used were 2 μM ADP (Sigma), 0.5 mg/ml arachidonic acid (Bio/Data), 10 μg/ml epinephrine (American Reagent Laboratories), or 0.2 units/ml thrombin.

[2] = tested on: normal human reference plasma; assay: Activated partial thromboplastin time (aPTT) assay in human plasma; format: biochemical; details: 1 mM peptide; reference blood plasma; without peptide 29.0±0.1 seconds
Procedure: Activated Partial Thromboplastin Time (aPTT) Assay. This anti-coagulation assay was chosen for testing the γ′ peptides due to its sensitivity to heparin-like compounds, its ease of use, and the ability to automate the procedure. An MLA 1600 instrument (Organon Teknika) was used to quantitate the effect of the γ′ peptides on the aPTT, using the manufacturer's protocol. Briefly, 0-1 mM γ′ peptides or 0-10 units/ml unfractionated heparin was added to 50 μl of normal reference plasma (Ortho) and manually loaded into the MLA 1600. The MLA 1600 added SynthASil aPTT reagent (Ortho) to initiate clotting, and clot formation was monitored spectrophotometrically for 106 seconds. […] Prothrombin Time/International Normalized Ratio Assay. This clotting assay is less sensitive to heparin than the aPTT, and may be used to determine if a γ′ peptide is capable of prolonging the prothrombin time (PT) to the same extent as the 3 aPTT. One-stage PT assays may be performed using an MLA 1600 instrument according to the manufacturer's protocol. Briefly, 0-1 mM γ′ peptide or scrambled peptide or 0-10 units/ml unfractionated heparin may be added to 50 μl of normal reference plasma (Ortho) and manually loaded into the MLA 1600. The MLA 1600 may be used to add recombinant thromboplastin (Recombiplastin, Ortho) to initiate clotting, and clot formation monitored spectrophotometrically for 106 seconds. If a clot is not generated within 106 seconds, the MLA will automatically extend the observation time to 212 seconds.
An aPTT assay was performed using human plasma to determine the effect of γ′ peptide on the clotting time in this system. […] The MLA 1600 added SynthASil aPTT reagent (Ortho) to initiate clotting and clot formation was monitored spectrophotometrically for 106 seconds. […]
An aPTT assay was performed using human plasma to determine the effect of γ′ deletion peptides on the clotting time in this system. […] The MLA 1600 added SynthASil aPTT reagent (Ortho) to initiate clotting and clot formation was monitored spectrophotometrically for 106 seconds. […]

With “PEHPAETEY(*)DSLY(*)PEDDL (PEHPAETEYDSLYPEDDL; not fully specified (residues 9, 13); printed as PEHPAETEY(*)DSLY(*)PEDDL) [γ′ 410-427]” the “Platelet aggregation Slope, ADP” value ([1]; 0.125 mM peptide) was 43, the “Platelet aggregation Extent, ADP” value ([1]; 0.125 mM peptide) was 87% and the “Platelet aggregation Slope, ADP” value ([1]; 0.25 mM peptide) was 40. For the same substance, the “Platelet aggregation Extent, ADP” value ([1]; 0.25 mM peptide) was 86%, the “Platelet aggregation Slope, ADP” value ([1]; 0.5 mM peptide) was 39 and the “Platelet aggregation Extent, ADP” value ([1]; 0.5 mM peptide) was 82%. The “Platelet aggregation Slope, ADP” value ([1]; 1.0 mM peptide) was 32, the “Platelet aggregation Extent, ADP” value ([1]; 1.0 mM peptide) was 58% and the “Platelet aggregation Slope, Epinephrine” value ([1]; 0.125 mM peptide) was 22. For the same substance, the “Platelet aggregation Extent, Epinephrine” value ([1]; 0.125 mM peptide) was 84%, the “Platelet aggregation Slope, Epinephrine” value ([1]; 0.25 mM peptide) was 20 and the “Platelet aggregation Extent, Epinephrine” value ([1]; 0.25 mM peptide) was 82%. For the same substance, the “Platelet aggregation Slope, Epinephrine” value ([1]; 0.5 mM peptide) was 16, the “Platelet aggregation Extent, Epinephrine” value ([1]; 0.5 mM peptide) was 78% and the “Platelet aggregation Slope, Epinephrine” value ([1]; 1.0 mM peptide) was 9. The “Platelet aggregation Extent, Epinephrine” value ([1]; 1.0 mM peptide) was 43%, the “Platelet aggregation Slope, Arachidonic Acid” value ([1]; 0.125 mM peptide) was 33 and the “Platelet aggregation Extent, Arachidonic Acid” value ([1]; 0.125 mM peptide) was 81%. For the same substance, the “Platelet aggregation Slope, Arachidonic Acid” value ([1]; 0.25 mM peptide) was 35, the “Platelet aggregation Extent, Arachidonic Acid” value ([1]; 0.25 mM peptide) was 82% and the “Platelet aggregation Slope, Arachidonic Acid” value ([1]; 0.5 mM peptide) was 31. The “Platelet aggregation Extent, Arachidonic Acid” value ([1]; 0.5 mM peptide) was 83%, the “Platelet aggregation Slope, Arachidonic Acid” value ([1]; 1.0 mM peptide) was 34 and the “Platelet aggregation Extent, Arachidonic Acid” value ([1]; 1.0 mM peptide) was 85%. For the same substance, the “Platelet aggregation Extent, Thrombin” value ([1]; 0.125 mM peptide) was 68%, the “Platelet aggregation Slope, Thrombin” value ([1]; 0.125 mM peptide) was 70 and the “Platelet aggregation Extent, Thrombin” value ([1]; 0.25 mM peptide) was 64%. For the same substance, the “Platelet aggregation Slope, Thrombin” value ([1]; 0.25 mM peptide) was 39, the “Platelet aggregation Extent, Thrombin” value ([1]; 0.5 mM peptide) was 93% and the “Platelet aggregation Slope, Thrombin” value ([1]; 0.5 mM peptide) was 21. For the same substance, the “Platelet aggregation Extent, Thrombin” value ([1]; 1.0 mM peptide) was 33%, the “Platelet aggregation Slope, Thrombin” value ([1]; 1.0 mM peptide) was 10 and the “Blood clotting time, activated partial thromboplastin assay” value [2] was 55.1 ± 0.0 s.
